# Assay results published in patent EP4501339A1, “POSTBIOTIC COMPOSITION FOR SKIN DISORDERS AND COSMETIC USE” (Igen Biolab Group AG, priority 2023, dated 2025).
# Legend:
# [1] = In vitro 3T3 NRU phototoxicity assay OECD 432; format: cell-based, mouse; conditions: mouse, reference item; for viability at 1 h, 200 µg/mL: C1 = 200 µg/mL; for viability at 1 h, 66.67 µg/mL: C2 = 66.67 µg/mL; for viability at 1 h, 22.22 µg/mL: C3 = 22.22 µg/mL; for viability at 1 h, 7.407 µg/mL: C4 = 7.407 µg/mL; for viability at 1 h, 2.47 µg/mL: C5 = 2.47 µg/mL; for viability at 1 h, 0.823 µg/mL: C6 = 0.823 µg/mL; for viability at 1 h, 0.274 µg/mL: C7 = 0.274 µg/mL; for viability at 1 h, 0.091 µg/mL: C8 = 0.091 µg/mL
# Protocol: (§1) The phototoxicity assay used 3T3 cells as test system. The aim of this study was to obtain the Photo-Irritation Factor (PIF) for the postbiotic composition of the invention. 3T3 cells were treated with the postbiotic composition of the invention at eight different concentrations for 1 hour. Thereafter, half of the samples were exposed to simulated solar irradiation, whereas the other half was kept in the dark. Cell viability was calculated after 24 hours of incubation by means of the neutral red assay. The following reagents were used for these assays. Table 3 Table 3 Reagents used in this example
# (§2) Balb/c 3T3 cells were used as a test system. Once thawed, cells were grown as a monolayer in DMEM culture medium supplemented with 10% Newborn Calf Serum (NCBS) and antibiotics (100 U/mL penicillin and 100 µg/mL streptomycin). The cells were incubated under standard culture conditions (37°C ± 2°C and 5% CO2/air), changing the medium every 2-3 days and sub-cultivating before reaching 80% confluency. According to the guideline, the 3T3 cells used in this study were tested for mycoplasma and only mycoplasma-free cells were used throughout the study.
# (§3) To prepare the system, after thawing, cells were propagated from stock cultures and grown in culture medium for two weeks. For each assay, when cell density reached 80% confluence, they were trypsinized and counted using trypan blue strain. The day before the exposition to the postbiotic composition of the invention, the cells were tripsinized and counted. A suspension of 100,000 cells/mL was prepared and 200 µL of the suspension were added to each well in 96-well plates (20,000 cells/well), except in the peripheral wells.
# (§4) According to the OECD Guideline for testing of chemicals: In Vitro 3T3 NRU phototoxicity test, protocol No 432 (2019), the maximum concentration to be analyzed is 1 mg/mL. As the cytotoxicity assay exposed the cells to the composition for 24 hours, and the phototoxicity assay includes an exposition of 1 hour, it was decided to perform the phototoxicity test starting from 1 mg/mL. From this concentration, eight concentrations were prepared in 1/3 dilutions. This solution was prepared in Hank's with Ca2+ and Mg2+ and HEPES. (C1) 1 mg/mL; (C2) 0.33 mg/mL; (C3) 0.11 mg/mL; (C4) 0.037 mg/mL; (C5) 0.0123 mg/mL; (C6) 0.0041 mg/mL; (C7) 0.00137 mg/mL; and (C8) 0.000457 mg/mL SDS was used as a positive control, 8 concentrations were prepared 400 µg/mL; 200 µg/mL; 100 µg/mL; 50 µg/mL; 25 µg/mL; 12.5 µg/mL; 6.25 µg/mL; and 3.125 µg/mL
# (§5) As the exposition time involved in the phototoxicity test was shorter, it was decided to start this assay from highest concentration allowed: 1 mg/mL. Seven more concentrations were prepared in 1/3 dilutions. 3T3 cells were seeded at 20,000 cells/well in 96-well plates. Cells were exposed to the eight concentrations of the postbiotic composition of the invention defined above for 1 hour at 37°C and 5% CO2. Two 96-well plates were prepared for the postbiotic composition of the invention, the postbiotic composition and reference control (CPZ). One plate of each condition (+IRR) was irradiated for 52 minutes at 5 J/cm^2 while the other plates (- IRR) were kept in the dark for the same amount of time. Then, culture media was removed, cells were washed with Hank's without phenol red and 100 µL of neutral red were added to each well. Cells were incubated for 3 hours at 37°C and 5% CO2 and then were washed again. Finally, the neutral red was solubilized by adding 100 µL to each well of a solution of Acetic acid/Ethanol. Plates were incubated 10 minutes at room temperature and absorbance at 540 nm was measured.
# (§6) Once obtained the cytotoxic results, the phototoxicity assay for the postbiotic composition of the invention was performed using 1 mg/mL as the highest dose. […] Therefore, it was decided to use the highest concentration allowed according to OECD 432 guideline. In total, 8 concentrations were prepared as disclosed in the material and methods section above. […]
# BALB/c 3T3 cells = assay: In vitro 3T3 NRU phototoxicity assay OECD 432; format: cell-based, mouse; conditions: for IC50: Mus musculus, BALB/c3T3, light or radiation study
# Protocol: as §1, §2, §3, §4, §5, §6
# in vitro = conditions: human
# 3T3 cells = assay: Dose range finding (cytotoxicity assay, MTT); format: cell-based, mouse; conditions: 3T3, 24h
# Protocol: - Prior to the phototoxicity assay, solubility of the composition was determined, it was decided to start from 20 mg/mL in culture media. Starting from this concentration, a dose range finding experiment (cytotoxicity assay) was performed. Starting from 20 mg/mL in culture media, eight concentrations were prepared in 1/10 dilutions: 20 mg/mL; 2 mg/mL; 0.2 mg/mL; 0.02 mg/mL; 0.002 mg/mL; 0.0002 mg/mL; 0.00002 mg/mL; and 0.000002 mg/mL
# Starting from the limit of solubility obtained (20 mg/mL) a dose range finding experiment was set up in order to determine the IC50 value (if obtained). 3T3 cells were seeded at 10,000 cells/well in 96-well plates. Seven more concentrations were prepared following a 1/10 dilution factor. Cells were exposed to the postbiotic composition of the invention for 24h. SDS was used as positive control and viability was determined by means of MTT method.
# To establish the concentrations to be tested in the phototoxicity assay, it was decided to check the postbiotic composition of the invention in a dose range finding assay using SDS as a positive control. Starting from 20 mg/mL dissolved in culture media it was decided to prepare the concentrations disclosed above in the materials and methods section. Using the Graphpad Prism 8 statistical software, we calculated the IC50 values by means of a 4-parameter logistic curve (4PL). This equation uses log(dose) values.
smiles,measurement,setting,value
"CN(C)CCCN1c2ccccc2Sc2ccc(Cl)cc21 [CPZ, Chlorpromazine]","viability at 1 h, 200 µg/mL",[1]; +IRR (5 J/cm^2),2.57%
same,"viability at 1 h, 66.67 µg/mL",[1]; +IRR (5 J/cm^2),0.32%
same,"viability at 1 h, 22.22 µg/mL",[1]; +IRR (5 J/cm^2),1.62%
same,"viability at 1 h, 7.407 µg/mL",[1]; +IRR (5 J/cm^2),1.75%
same,"viability at 1 h, 2.47 µg/mL",[1]; +IRR (5 J/cm^2),1.31%
same,"viability at 1 h, 0.823 µg/mL",[1]; +IRR (5 J/cm^2),83.4%
same,"viability at 1 h, 0.274 µg/mL",[1]; +IRR (5 J/cm^2),104%
same,"viability at 1 h, 0.091 µg/mL",[1]; +IRR (5 J/cm^2),103%
same,"viability at 1 h, 200 µg/mL",[1]; -IRR,0.41%
same,"viability at 1 h, 66.67 µg/mL",[1]; -IRR,0.01%
same,"viability at 1 h, 22.22 µg/mL",[1]; -IRR,97.8%
same,"viability at 1 h, 7.407 µg/mL",[1]; -IRR,104%
same,"viability at 1 h, 2.47 µg/mL",[1]; -IRR,105%
same,"viability at 1 h, 0.823 µg/mL",[1]; -IRR,105%
same,"viability at 1 h, 0.274 µg/mL",[1]; -IRR,104%
same,"viability at 1 h, 0.091 µg/mL",[1]; -IRR,102%
same,IC50,BALB/c 3T3 cells; irradiated plates,0.974 µg/mL
same,IC50,BALB/c 3T3 cells; non-irradiated plates,31.4 µg/mL
same,MPE (∑i = 1^n wi PEci)/(∑i = 1^n wi),"BALB/c 3T3 cells; mouse, 1 h",0.401
same,PIF (IC50(−Irr))/(IC50(+Irr)),"BALB/c 3T3 cells; mouse, 1 h",32.303
"CCCCCCCCCCCCOS(=O)(=O)[O-].[Na+] [SDS, Sodium dodecyl sulphate]",viability,in vitro,2%
same,positive control result in dose range finding,3T3 cells,within the known range
